Reference: publication PMC10981997, “PEDF peptide plus hyaluronic acid stimulates cartilage regeneration in osteoarthritis via STAT3-mediated chondrogenesis” (Bone & Joint Research, 2024)

Legend:
articular cartilage (AC) = experiment: In vivo BrdU labelling and immunostaining of chondrogenic markers in damaged AC; parameters: species or system rat; details: inhibitor 1 mM in 25 µl 5% HA intra-articular 60 min before 29-mer/HA at days 8 and 12
Protocol: Rats were anaesthetized by an intraperitoneal injection of xylazine (10 mg/kg) and then the right knees were injected with MIA (1 mg dissolved in 25 µl of sterile saline), using a 27-gauge needle through the patellar ligament of the knees.[18],[19] The left knee joints (control) were injected with saline. To prepare the 29-mer/HA, the 29-mer was dissolved in dimethylsulfoxide (DMSO) to make a 10 mM stock solution. Equal volumes of DMSO and 29-mer (0.5 µl) were dissolved in HA. At days 8 and 12 after MIA injection, the right knees (n = 6 per group) were randomly injected by: 1) 29-mer/25 µl of 5% HA (final concentration of 29-mer at 0.2 mM); 2) DMSO vehicle/5% HA; 3) control peptide/5% HA; 4) 5% HA alone; and 5) 29-mer/25 µl of phosphate-buffered saline (PBS; final concentration of 29-mer at 0.2 mM). […]
BrdU was reconstituted in DMSO as stock (80 mM). […] Deparaffinized sections were treated with 1N HCl at RT for 1 h, and DNA synthesis was assessed by anti-BrdU antibody. […] Images were captured using a Zeiss epifluorescence microscope with a CCD camera (Zeiss, Germany), and blinded quantification was performed in triplicate by manually counting within each section. […]

BM-MSCs = experiment: BrdU incorporation (proliferation) of BM-MSCs in expansion medium; format: cell-based, rat; details: pretreatment before 29-mer 10 μM, p < 0.001 vs 29-mer
Source text: Sprague-Dawley rats were anaesthetized and their femora were aseptically harvested, washed in a mixture of PBS and 1% penicillin/streptomycin for five minutes, dissected of all soft-tissue, transected at their epiphysis, and their marrow cavity rinsed repeatedly with a mixture of heparin (AGGLUTEX INJ 5,000 U/ml; working conc. 100 U/ml) and Dulbecco’s Modified Eagle Medium (DMEM; Gibco, Thermo Fisher Scientific). The harvested cells were collected, dispersed by pipetting, and centrifuged at 1,000× g for five minutes at RT. Cell pellets were resuspended with DMEM and then the cell suspension was transferred to a 15 ml centrifuge tube containing 5 ml of Percoll (1.073 g/ml; MilliporeSigma). After centrifugation at 1,500× g for 30 minutes, the mononuclear cells in the middle layer were obtained, washed three times with PBS, and suspended in expansion medium (low-glucose DMEM with 10% heat-inactivated FBS, 1% penicillin/streptomycin). […] BrdU immunostaining of BM-MSCs was performed as in Ho et al’s[14] study.
BM-MSCs were expanded for seven days in culture and then exposed to the 29-mer (10 μM) for 24 hours. Cell proliferation was detected by BrdU pulse-labelling for four hours and analyzed by BrdU immunostaining (red colour; Figure 1a).

In the case of `C[C@H]1COC2=C1C(=O)C(=O)c1c2ccc2c1CCCC2(C)C` [CPT, cryptotanshinone], the “effect of inhibitor on 29-mer/HA-induced BrdU-labelled chondrocytes” value (articular cartilage (AC)) is reported as “blocked” and the “effect of inhibitor pretreatment on the 29-mer-induced BrdU+ levels” value (BM-MSCs) is reported as “significantly suppressed”.
With `CN(C)C(=O)Nc1cccc(-c2ccc(N(C)C)cc2)c1` [atglistatin, Atglistatin] the “effect of inhibitor on 29-mer/HA-induced BrdU-labelled chondrocytes” value (articular cartilage (AC)) was “blocked” and the “effect of inhibitor pretreatment on the 29-mer-induced BrdU+ levels” value (BM-MSCs) was “significantly suppressed”.
